Results taken from ChEMBL document CHEMBL5344477, “Discovery of benzoheterocyclic-substituted amide derivatives as apoptosis signal-regulating kinase 1 (ASK1) inhibitors” (RSC Med Chem, 2024).

assay: Metabolic stability in human liver microsomes assessed as clearance at 1 uM measured upto 90 mins by LC-MS/MS analysis; assay type: ADME, Microsome; conditions: read-out: CLH

SMILES	CLint scaled at 1 µM [mL/min/kg]
O=C(Nc1cccc(-c2nncn2C2CCCC2)n1)c1cc2c(cc1F)OCc1cncn1-2	82.7
O=C1COc2cc(F)c(C(=O)Nc3cccc(-c4nncn4-c4ccccc4)n3)cc2N1	11.4
CC(C)n1cnnc1-c1cccc(NC(=O)c2cc3c(cc2F)OCc2cncn2-3)n1	16.3

assay: Metabolic stability in human liver microsomes assessed as half life at 1 uM measured upto 90 mins by LC-MS/MS analysis; assay type: ADME, Microsome; conditions: not given

SMILES	half-life at 1 µM [h]
O=C(Nc1cccc(-c2nncn2C2CCCC2)n1)c1cc2c(cc1F)OCc1cncn1-2	0.35
O=C1COc2cc(F)c(C(=O)Nc3cccc(-c4nncn4-c4ccccc4)n3)cc2N1	2.55
CC(C)n1cnnc1-c1cccc(NC(=O)c2cc3c(cc2F)OCc2cncn2-3)n1	1.78

assay: Metabolic stability in rat liver microsomes assessed as clearance at 1 uM measured upto 90 mins by LC-MS/MS analysis; assay type: ADME, Microsome; conditions: read-out: CLH

SMILES	CLint scaled at 1 µM [mL/min/kg]
O=C(Nc1cccc(-c2nncn2C2CCCC2)n1)c1cc2c(cc1F)OCc1cncn1-2	230
O=C1COc2cc(F)c(C(=O)Nc3cccc(-c4nncn4-c4ccccc4)n3)cc2N1	4.7
CC(C)n1cnnc1-c1cccc(NC(=O)c2cc3c(cc2F)OCc2cncn2-3)n1	222

assay: Apparent […] clearance in Sprague-Dawley rat at 1 mg/kg, iv measured upto 24 hrs by LC-MS/MS analysis; assay type: ADME, organism-based; conditions: in vivo

SMILES	CL/F [mL/min/kg]
CC(C)n1cnnc1-c1cccc(NC(=O)c2cc3c(cc2F)CCCC(=O)N3C)n1	43.7
CC(C)n1cnnc1-c1cccc(NC(=O)c2cc3c(cc2F)C(C)(C)CC(=O)N3)n1	13.8
O=C1COc2cc(F)c(C(=O)Nc3cccc(-c4nncn4-c4ccccc4)n3)cc2N1	3.33
CC(C)n1cnnc1-c1cccc(NC(=O)c2cc3c(cc2F)OCc2cncn2-3)n1	31.3

assay: Half life in Sprague-Dawley rat at 5 mg/kg, po measured upto 24 hrs by LC-MS/MS analysis; assay type: ADME, organism-based; conditions: in vivo

SMILES	half-life [h]
CC(C)n1cnnc1-c1cccc(NC(=O)c2cc3c(cc2F)CCCC(=O)N3C)n1	2.37
CC(C)n1cnnc1-c1cccc(NC(=O)c2cc3c(cc2F)C(C)(C)CC(=O)N3)n1	2.03
O=C1COc2cc(F)c(C(=O)Nc3cccc(-c4nncn4-c4ccccc4)n3)cc2N1	2.95
CC(C)n1cnnc1-c1cccc(NC(=O)c2cc3c(cc2F)OCc2cncn2-3)n1	1.1

assay: Cmax in Sprague-Dawley rat at 1 mg/kg, iv measured upto 24 hrs by LC-MS/MS analysis; assay type: ADME, organism-based; parameters: dose 1 mg/kg, time < 24 hrs, route iv; conditions: in vivo

SMILES	Cmax [ng/mL]
CC(C)n1cnnc1-c1cccc(NC(=O)c2cc3c(cc2F)CCCC(=O)N3C)n1	597
CC(C)n1cnnc1-c1cccc(NC(=O)c2cc3c(cc2F)C(C)(C)CC(=O)N3)n1	945
Cc1cc(F)c(C(=O)Nc2cccc(-c3nncn3C(C)C)n2)cc1-n1cnc(C2CC2)c1 [SELONSERTIB]	3030
O=C1COc2cc(F)c(C(=O)Nc3cccc(-c4nncn4-c4ccccc4)n3)cc2N1	1580
CC(C)n1cnnc1-c1cccc(NC(=O)c2cc3c(cc2F)OCc2cncn2-3)n1	793

assay: AUClast in Sprague-Dawley rat at 5 mg/kg, po measured upto 24 hrs by LC-MS/MS analysis; assay type: ADME, organism-based; parameters: dose 5 mg/kg, time < 24 hrs, route po; conditions: in vivo

SMILES	AUC(0-t) at 24 h [ng·h/mL]
CC(C)n1cnnc1-c1cccc(NC(=O)c2cc3c(cc2F)CCCC(=O)N3C)n1	2210
CC(C)n1cnnc1-c1cccc(NC(=O)c2cc3c(cc2F)C(C)(C)CC(=O)N3)n1	4560
Cc1cc(F)c(C(=O)Nc2cccc(-c3nncn3C(C)C)n2)cc1-n1cnc(C2CC2)c1 [SELONSERTIB]	38300
O=C1COc2cc(F)c(C(=O)Nc3cccc(-c4nncn4-c4ccccc4)n3)cc2N1	12100
CC(C)n1cnnc1-c1cccc(NC(=O)c2cc3c(cc2F)OCc2cncn2-3)n1	2280

assay: Cmax in Sprague-Dawley rat at 5 mg/kg, po measured upto 24 hrs by LC-MS/MS analysis; assay type: ADME, organism-based; parameters: dose 5 mg/kg, time < 24 hrs, route po; conditions: in vivo

SMILES	Cmax [ng/mL]
CC(C)n1cnnc1-c1cccc(NC(=O)c2cc3c(cc2F)CCCC(=O)N3C)n1	582
CC(C)n1cnnc1-c1cccc(NC(=O)c2cc3c(cc2F)C(C)(C)CC(=O)N3)n1	1420
Cc1cc(F)c(C(=O)Nc2cccc(-c3nncn3C(C)C)n2)cc1-n1cnc(C2CC2)c1 [SELONSERTIB]	6030
O=C1COc2cc(F)c(C(=O)Nc3cccc(-c4nncn4-c4ccccc4)n3)cc2N1	3000
CC(C)n1cnnc1-c1cccc(NC(=O)c2cc3c(cc2F)OCc2cncn2-3)n1	794

assay: Half life in Sprague-Dawley rat at 1 mg/kg, iv measured upto 24 hrs by LC-MS/MS analysis; assay type: ADME, organism-based; conditions: in vivo

SMILES	half-life [h]
CC(C)n1cnnc1-c1cccc(NC(=O)c2cc3c(cc2F)CCCC(=O)N3C)n1	0.73
CC(C)n1cnnc1-c1cccc(NC(=O)c2cc3c(cc2F)C(C)(C)CC(=O)N3)n1	0.99
O=C1COc2cc(F)c(C(=O)Nc3cccc(-c4nncn4-c4ccccc4)n3)cc2N1	3.15
CC(C)n1cnnc1-c1cccc(NC(=O)c2cc3c(cc2F)OCc2cncn2-3)n1	0.67

assay: Metabolic stability in rat liver microsomes assessed as half life at 1 uM measured upto 90 mins by LC-MS/MS analysis; assay type: ADME, Microsome; conditions: not given

SMILES	half-life at 1 µM [h]
O=C(Nc1cccc(-c2nncn2C2CCCC2)n1)c1cc2c(cc1F)OCc1cncn1-2	0.18
O=C1COc2cc(F)c(C(=O)Nc3cccc(-c4nncn4-c4ccccc4)n3)cc2N1	8.74
CC(C)n1cnnc1-c1cccc(NC(=O)c2cc3c(cc2F)OCc2cncn2-3)n1	0.187

assay: AUClast in Sprague-Dawley rat at 1 mg/kg, iv measured upto 24 hrs by LC-MS/MS analysis; assay type: ADME, organism-based; parameters: dose 1 mg/kg, time < 24 hrs, route iv; conditions: in vivo

SMILES	AUC(0-t) at 24 h [ng·h/mL]
CC(C)n1cnnc1-c1cccc(NC(=O)c2cc3c(cc2F)CCCC(=O)N3C)n1	381
CC(C)n1cnnc1-c1cccc(NC(=O)c2cc3c(cc2F)C(C)(C)CC(=O)N3)n1	1200
O=C1COc2cc(F)c(C(=O)Nc3cccc(-c4nncn4-c4ccccc4)n3)cc2N1	5070
CC(C)n1cnnc1-c1cccc(NC(=O)c2cc3c(cc2F)OCc2cncn2-3)n1	529

assay: Oral bioavailability in Sprague-Dawley rat at 5 mg/kg measured upto 24 hrs by LC-MS/MS analysis; assay type: ADME, organism-based; conditions: in vivo

SMILES	bioavailability [%]
CC(C)n1cnnc1-c1cccc(NC(=O)c2cc3c(cc2F)CCCC(=O)N3C)n1	116
CC(C)n1cnnc1-c1cccc(NC(=O)c2cc3c(cc2F)C(C)(C)CC(=O)N3)n1	75.9
Cc1cc(F)c(C(=O)Nc2cccc(-c3nncn3C(C)C)n2)cc1-n1cnc(C2CC2)c1 [SELONSERTIB]	129
O=C1COc2cc(F)c(C(=O)Nc3cccc(-c4nncn4-c4ccccc4)n3)cc2N1	47.9
CC(C)n1cnnc1-c1cccc(NC(=O)c2cc3c(cc2F)OCc2cncn2-3)n1	86.9

assay: Volume of distribution at steady state in Sprague-Dawley rat at 1 mg/kg, iv measured upto 24 hrs by LC-MS/MS analysis; assay type: ADME, organism-based; conditions: in vivo, read-out: Vdss

SMILES	Vd [L/kg]
CC(C)n1cnnc1-c1cccc(NC(=O)c2cc3c(cc2F)CCCC(=O)N3C)n1	1.56
CC(C)n1cnnc1-c1cccc(NC(=O)c2cc3c(cc2F)C(C)(C)CC(=O)N3)n1	1.07
Cc1cc(F)c(C(=O)Nc2cccc(-c3nncn3C(C)C)n2)cc1-n1cnc(C2CC2)c1 [SELONSERTIB]	0.27
O=C1COc2cc(F)c(C(=O)Nc3cccc(-c4nncn4-c4ccccc4)n3)cc2N1	0.68
CC(C)n1cnnc1-c1cccc(NC(=O)c2cc3c(cc2F)OCc2cncn2-3)n1	1.22
